Values after ≈ are worked out from the molar mass of the structure shown.

One assay can be described thus: DPPH scavenging capacity. The note with it: 0.1 mM DPPH. The protocol:
The method utilized to test the compound’s efficacy in scavenging DPPH radicals was based on protocols detailed in references, with minor changes. The test was completed in duplicate for each concentration. A solution of 0.1 mM DPPH (2,2-diphenyl-1-picrylhydrazyl) was produced, and the compounds were evaluated at different concentrations ranging from 1 to 500 µg/mL. Ascorbic acid served as the positive control with concentrations ranging from 0.01 to 300 µg/mL [35].

The next assay in a line: ABTS scavenging activity. From the text: With a few minor adjustments, the procedure published by Re et al., was used to evaluate the test samples’ capacity to scavenge radicals against the ABTS (2,2′-azinobis-3-ethylbenzothiazoline-6-sulphonate) radical cation.
Assay [1] in a line: Oxygen radical absorbance capacity (ORAC). To be noted: Trolox equivalents. The protocol:
The ORAC (Oxygen Radical Absorbance Capacity) test was carried out using a modified version of the procedure reported by Huang et al.. This test examines the antioxidant capacity of compounds by examining their ability to neutralize oxygen radicals. The method was carried out utilizing a 96-well microplate format. First, 150 µL of fluorescein solution, produced as 8 × 10^−8 M fluorescein in 0.075 M phosphate buffer (pH 7.4), were dispersed to each well. Fluorescein is a fluorescent probe whose fluorescence lowers when it reacts with radicals. Next, 25 µL of the substance or mixture to be evaluated was added to the corresponding wells. Wells containing 25 µL of phosphate buffer served as blanks, and wells containing 25 µL of Trolox solution (from 10 to 100 µm) were utilized as standards. Control wells containing 50 µL phosphate buffer without any radicals were also added to provide a baseline. The reaction was initiated by adding 25 µL of a freshly produced solution of AAPH (2,2′-azobis(2-methylpropionamidine) dihydrochloride) at a concentration of 165.94 mM in phosphate buffer to each well, except for the control wells, at a temperature of 37 °C. AAPH creates peroxyl radicals that induce oxidative stress in the fluorescein solution, simulating free-radical attack. […] The fluorescence in-tensity of the mixture was then monitored at regular intervals for 120 min.

A further assay has as its target T1, COX-1 (Ovis aries, UniProt P05979).
T1 construct: The COX-1 enzyme was produced from ram seminal vesicles; purchased Cayman Chemical Company, Ann Arbor, MI, USA; host or cells: ram seminal vesicles (tissue)
T1 sequence (P05979 25-600): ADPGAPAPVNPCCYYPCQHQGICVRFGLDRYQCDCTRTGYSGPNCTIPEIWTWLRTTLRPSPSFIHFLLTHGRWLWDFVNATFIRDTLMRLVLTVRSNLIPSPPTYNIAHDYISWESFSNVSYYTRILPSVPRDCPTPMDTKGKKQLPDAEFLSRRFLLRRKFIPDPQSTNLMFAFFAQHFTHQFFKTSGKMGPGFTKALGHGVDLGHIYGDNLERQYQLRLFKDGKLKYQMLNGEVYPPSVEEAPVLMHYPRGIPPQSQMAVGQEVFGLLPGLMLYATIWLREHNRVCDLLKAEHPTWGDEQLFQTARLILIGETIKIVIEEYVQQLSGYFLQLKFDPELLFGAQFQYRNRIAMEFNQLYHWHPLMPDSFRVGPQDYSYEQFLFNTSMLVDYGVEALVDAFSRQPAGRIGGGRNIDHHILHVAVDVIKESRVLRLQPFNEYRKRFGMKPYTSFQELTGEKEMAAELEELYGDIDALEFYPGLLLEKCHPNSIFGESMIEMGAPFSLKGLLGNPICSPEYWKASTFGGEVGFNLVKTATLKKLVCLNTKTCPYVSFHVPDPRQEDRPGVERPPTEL
The assay is described as follows: COX-1-catalyzed prostaglandin production inhibition. In kind it is biochemical, ram. The protocol:
The COX inhibitory effects of the substances were examined using a COX-1/COX-2-catalyzed prostaglandin production test, using a modified approach by Futaki et al.. The chemicals were dissolved in 4% DMSO to a final concentration of 100 µg/mL.
In this test, one unit of COX-1 or COX-2 enzyme was suspended in a 0.1 M Tris-HCl buffer (pH 7.5) containing hematin ([…]) and phenol (2 mM) as cofactors. The COX-1 enzyme was produced from ram seminal vesicles, while COX-2 was taken from sheep placenta with a purity of 70% (both from Cayman Chemical Company, Ann Arbor, MI, USA). The reaction mixture was preincubated with either the solvent vehicle (4% DMSO) or the test solution for 2 min at 37 °C. […] Arachidonic acid, tagged with radioactive carbon ([1–14C]), serves as a substrate for the COX enzymes. The mixture was then incubated for an additional 2 min at 37 °C. […] The organic solvent phase was removed, and the PGE2 level in the remaining aqueous phase was quantified using a radioimmunoassay with a liquid scintillation counter, which measures the radioactivity (disintegrations per minute, DPM) of the [1–14C]-labeled PGE2. The percentage inhibition of COX-catalyzed prostaglandin production by the test compounds was estimated by comparing the radioactivity of the samples with the solvent vehicle controls. […]

The subject of a further assay is MCF-7 cells. To be noted: at 24 and 48 h; ref Mari et al. (2021) [78]; read-out: IC50, survival of MCF-7 cells; cited from earlier work.
The next assay relates to MDA-MB-436. The experiment in a line: MTT cell viability, MDA-MB-436. In kind it is cell-based, Human. The protocol: (§1) These cell lines were selected to represent distinct sub-types of breast cancer for extensive investigation. […] The medium was added with 10% heat-inactivated fetal calf serum (FCS) to supply vital growth hormones and nutrients necessary for cell proliferation. Additionally, 1% penicillin streptomycin was administered to avoid bacterial contamination, ensuring the sterility and integrity of the cell cultures. The cell cultures were maintained at 37 °C in a humidified environment containing 5% CO2. This controlled environment mimics physiological conditions in the human body, supporting optimal cell development and function. The humidified atmosphere prevents medium evaporation, while the 5% CO2 concentration maintains optimal pH values in the culture medium. These specialized circumstances and methods ensure that the breast cancer cell lines remain healthy and viable for experimental procedures, delivering dependable and reproducible results for research projects. The standard protocols followed for cultivating these cells are crucial for generating consistent and reliable data. Using well-characterized cell lines from a credible source like ATCC ensures the re-liability and comparability of the experimental outcomes.
(§2) This approach determines cell viability based on the ability of living cells to decrease MTT to a purple, water-insoluble formazan product. Cells were planted in 96-well plates at a density of 1 × 10^4 cells per well in 100 μL of complete culture media, which provides all necessary nutrients for cell growth. […] The cells were then treated with the compounds for 24, 48, and 72 h to determine the effect on cell viability over varied time intervals. Following each incubation time, 20 μL of MTT solution (at a concentration of 5 mg/mL in PBS) were applied to each well. The plates were further incubated for 4 h at 37 °C, during which time live cells decrease the MTT to formazan, creating purple crystals. At the end of the incubation, the medium containing the MTT was carefully aspirated, leaving only the formazan crystals in the bottom of the wells. […]

The test system of the next assay is MCF-7. The assay is described as follows: MTT cell viability, MCF-7. The format is cell-based, Human. The protocol: as §1, §2
In the next assay the test system is MDA-MB-231. The assay is described as follows: MTT cell viability, MDA-MB-231. In kind it is cell-based, Human. The protocol: as §1, §2
In assay [2] the test system is peripheral blood mononuclear cells (PBMC). The experiment in a line: MTT cell viability, PBMC (normal cell control). To be noted: MTT test, 72 h of treatment (Figure 3). The format is cell-based. The protocol:
This approach determines cell viability based on the ability of living cells to decrease MTT to a purple, water-insoluble formazan product. Cells were planted in 96-well plates at a density of 1 × 10^4 cells per well in 100 μL of complete culture media, which provides all necessary nutrients for cell growth. […] The cells were then treated with the compounds for 24, 48, and 72 h to determine the effect on cell viability over varied time intervals. Following each incubation time, 20 μL of MTT solution (at a concentration of 5 mg/mL in PBS) were applied to each well. The plates were further incubated for 4 h at 37 °C, during which time live cells decrease the MTT to formazan, creating purple crystals. At the end of the incubation, the medium containing the MTT was carefully aspirated, leaving only the formazan crystals in the bottom of the wells. To dissolve these crystals, 100 μL of DMSO were administered to each well. […] This formula quantifies the reduction in cell viability in response to the treatments compared to the control. […] Cisplatin, a known anticancer drug, was used as a reference drug at varying concentrations from 0.01 to 50 µg/mL.
In general terms: Formazan colour is commonly taken as a measure of viable cells.

Setting [3] is: MTT test, 72 h of treatment (Figure 3).

Turning to `O=C1O[C@H]([C@@H](O)CO)C(O)=C1O` [Ascorbic acid (AA), Ascorbic acid, reference compound], the “DPPH Scavenging Capacity IC50” value in “DPPH scavenging capacity” amounted to 188.24 ± 6.46 µg/mL. Also, the “ABTS Scavenging Activity IC50” value in the assay “ABTS scavenging activity” came out at 25.20 ± 3.06 µg/mL.
As to `Cc1ccc(C(C)C)cc1O` [Carvacrol, 2-methyl-5-(1-methylethyl)phenol], in [1], the “Oxygen Radical Absorbance Capacity” value came to 3.535 ± 0.127 mmol TE/g. Further, the IC50 was 470 µM at COX-1; 200 µM in the assay on MCF-7 cells; 9.5 ± 1.15 µg/mL (≈ 63.2 µM) in the assay on MDA-MB-436 (Homo sapiens, MDA-MB-436, 72 h, read-out: IC50 Value ± SD, MDA-MB-436); 5.93 ± 0.77 µg/mL (≈ 39.5 µM) in the assay with MCF-7 (Homo sapiens, MCF7, 72 h, read-out: IC50 Value ± SD, MCF-7); 9.76 ± 0.23 µg/mL (≈ 65 µM) in the assay on MDA-MB-231 (Homo sapiens, MDA-MB-231, 72 h, read-out: IC50 Value ± SD, MDA-MB-231). The “ABTS Scavenging Activity IC50” value in “ABTS scavenging activity” is recorded as 107.88 ± 4.46 µg/mL.
As to `N.N.[Cl][Pt][Cl]` [Cisplatin, reference compound], the “IC50 Value ± SD, PBMC” value in [2] was found to be 25.36 ± 1.40 µg/mL. In addition, the “IC50 Value ± SD, MDA-MB-436” value with MDA-MB-436 (setting [3]) was found to be 3.96 ± 0.59 µg/mL. In the assay with MCF-7 (setting [3]), the “IC50 Value ± SD, MCF-7” value turned out to be 8.43 ± 0.92 µg/mL. Further, the “IC50 Value ± SD, MDA-MB-231” value in the assay on MDA-MB-231 (setting [3]) was found to be 4.60 ± 0.66 µg/mL.

One may read the IC50 as the concentration needed to halve the response being measured.

The record behind these values is paper PMC11355195 (Life, 2024).
